Key:
MDA-MB-231 cells = assay: Secondary tumorsphere formation; format: cell-based, human; conditions: 2.5 μM, up to 7 days
Procedure: either vehicle, pivarubicin (NV), or doxorubicin (DOX), and cultured for up to 7 days prior to obtaining the digital images shown in FIG. 6C (vehicle only), FIG. 6D (2.5 uM PIV), and FIG. 6E (2.5 uM DOX). The bar graph in FIG. 6F represents the mean number of tumorspheres greater than […] in diameter/well (n>3).

LM2 tumors = assay: Orthotopic xenograft of luminescent MDA-MB-231 (LM2) cells in mammary glands
Procedure: Monolayer LM2 cells were trypsinized and resuspended in DMEM media containing 10% FBS and 1× antibiotic/antimitotic. Cell concentration was adjusted to yield 2.5 […] for each 10 uL injection in PBS. After preparation for injection, cells were kept on ice at all times. Cells were surgically implanted into the left and right inguinal mammary glands of 4-week-old female NSG mice (NOD/SCID IL2Rγ−/−; Jackson Laboratory [Bar Harbor Me.] #5557) bred in-house. Mice were anesthetized with 1.2% avertin via intraperitoneal (i.p.) injection prior to surgery. Mice were also injected subcutaneously between shoulder blades with rimadyl for pain relief on day of surgery and on day following surgery. Primary tumor growth prior to and during treatment was monitored initially by manual palpation for tumor appearance, then twice weekly using digital calipers. Tumor volume was calculated by the formula: Volume=(Width2×Length)/2. When tumors attained a volume of approximately […], cohorts of 10 randomized drug-naïve, female, NSG mice (8±1 weeks old, 23±2 g) were administered the maximum tolerated dose (MTD) of pivarubicin, doxorubicin or the equivalent volume of vehicle (70% sterile saline, 15% ethanol, 15% Cremophor EL) as a bolus i.p. injection in parallel experiments. Tumor volumes were measured in a blinded manner.
Mice were imaged using Xenogen In Vivo Imaging System® Lumina from Perkin Elmer (Waltham Mass.). Stock D-Luciferin, Firefly, potassium salt (Perkin Elmer, 122799) was prepared in DPBS at a concentration of 30 mg/mL and sterile filtered with 0.2 micrometer syringe filter. Luciferin was further diluted to 15 mg/mL in DPBS prior to injection. Mice were injected i.p. with 200 uL of luciferin. Primary tumors were imaged by placing mice in dorsal recumbency using luminescent setting of auto exposure, field of view D with resolution setting of 4 (medium binning), 10 minutes after injection with luciferin, approximately 5 minutes following anesthetization with isoflurane. Data are reported as total flux in photons per second (p/s) using Living Image software.
In a study of doxorubicin treatment of TNBC-bearing NSG mice, LM2 cells were implanted into the 4R and 4L cleared mammary fat pads of female NSG mice and permitted to proliferate for 26 days until a tumor volume range of 125-190 mm3 was reached based on caliper measurements. Doxorubicin was administered IP rapid push in 70% sterile saline, 15% EtOH, 15% Cremophor EL at 14-day intervals, with tumor volumes measured at indicated days post-implantation, as summarized in FIG. 7A. […] At endpoint, mice were euthanized, and primary tumors resected for volume (FIG. 7B), weight (FIG. 7C), and luminescence (FIG. 7D) measurements. Endpoint results are expressed as the mean±standard error of 10 mice per group. Statistical significance was determined by the Wilcoxon rank-sum test.
Pivarubicin treatment of TNBC-bearing NSG mice was also studied. LM2 cells were implanted into the 4R and 4L cleared mammary fat pads of female NSG mice and permitted to proliferate for 22-24 days until a tumor volume range of 125-190 mm3 was reached based on caliper measurements. Pivarubicin was administered IP rapid push in 70% sterile saline, 15% EtOH, 15% Cremophor EL as either a single dose at 26.6 mg/kg (FIG. 8A) or in two 16.5-mg/kg doses at a 14-day interval (FIG. 8B) with tumor volumes measured at indicated days post-implantation. […] At endpoint, mice were euthanized, and primary tumors resected for volume (FIG. 8C) and weight (FIG. 8D) measurements. Results are expressed as the mean±standard error of 10 mice per group. Statistical significance was determined by the Wilcoxon rank-sum test.

[1] = Cardiotoxicity assessment (Bertazzoli Test), non-tumor-bearing mice; format: in vivo, female NSG mice; conditions: for hearts with Severity 0 / hearts with Severity 0.5 / hearts with Severity 1.0 / hearts with Total Score 0 / hearts with Total Score 0.5 / hearts with Total Score 1.0: Non-Tumor-Bearing; for hearts with Severity 0 / hearts with Severity 0.5 / hearts with Severity 1.0: 3 i.p. doses at 2-week intervals; for hearts with Total Score 0 / hearts with Total Score 0.5 / hearts with Total Score 1.0: severity×extension
Procedure: Drug-mediated cardiotoxicity was assessed in both non-tumor-bearing female NSG mice administered three doses (i.p. every two weeks) of the MTD of doxorubicin, pivarubicin or the equivalent volume of solvent only and in hearts excised from tumor-bearing mice treated as described in Results section. Body weights were monitored every three days. Two weeks after final dose, mice were sacrificed, and hearts were excised immediately. Intact ventricular myocardia were fixed for a minimum of 24 h in 10% formalin phosphate buffered to pH 7.0 and then carefully sectioned into 2 to 3-mm thick slices before being dehydrated in graded ethanol and cleared in xylene prior to embedding in paraffin at 58° C. Sections (4-μm thick) were mounted on glass slides, deparaffinized in xylene, and stained in the routine fashion with Mayer's hematoxylin and eosin. Slide labels were blinded to evaluator. Myocardial lesions were evaluated by routine light microscopy and scored with regard to the severity and extent of damage:
Degree of severity (S)—0, no evidence of histological changes; 1, sarcoplasmic microvacuolization and/or inclusions (interstitial or cellular edema); 2, as in 1 plus sarcoplasmic macrovacuolization or atrophia, necrosis, fibrosis, endocardial lesions, and thrombi.
Degree of extension (E)—0, no lesions; 0.5, less than 10 single altered myocytes on the whole-heart section; 1, scattered single altered myocytes; 2, scattered small groups of altered myocytes; 3, spread small groups of altered myocytes; 4, confluent groups of altered myocytes; 5, most of cells damaged.
Total cardiotoxicity score/animal=S×E and mean total score (MTS) for each treatment group was MTS=(S×E)/number of animals.
Given the limitation of doxorubicin in the treatment of tumors due to irreversible cardiotoxicity due to the total cumulative dose of drug, it was next determined whether pivarubicin produced evidence of cardiotoxic damage at the total dose of drug administered to NSG mice that produced tumor growth inhibition. Histological evidence of ventricular damage in hearts of drug- or vehicle-treated NSG mice were assessed using the Bertazzoli Test, originally designed to assess doxorubicin-induced cardiomyocyte damage. Analyses were performed on hearts from two independent experiments: 1) hearts that were excised at dosing endpoint from tumor-bearing NSG mice receiving 2 i.p. doses of pivarubicin at 16.5 mg/kg, doxorubicin at 1.4 mg/kg then 1.6 mg/kg and an equivalent volume of vehicle alone and 2) non-tumor-bearing female NSG mice receiving 3 i.p. doses of pivarubicin at 16.5 mg/kg, doxorubicin at 1.4 mg/kg then 1.6 mg/kg×2 and an equivalent volume of vehicle alone at 2-week intervals.
Non-tumor-bearing female NSG mice at 9 weeks old were treated with either 16.5 mg/kg pivarubicin (PIV), 1.4 mg/kg (1×) and 1.6 mg/kg (2×) doxorubicin and equivalent volumes of vehicle i.p. at 2-week intervals. Tumor-bearing female NSG mouse treatment was as described for the “Cardiotoxicity Assessment method” method. At endpoint, hearts were excised and prepared for histological analysis as described above. Severity and severity×extension (total score) are defined in Materials and Methods.

[2] = two doses of 16.5 mg/kg i.p. at two-week interval, endpoint

SMILES	inhibition of secondary tumorsphere formation (MDA-MB-231 cells)	tumor growth compared with vehicle treatment (volume, weight) (LM2 tumors; 1.4 mg/kg, then 1.6 mg/kg 14 days later, i.p.)	weight loss in tumor-bearing mice (LM2 tumors; after 1.4 mg/kg and 1.6 mg/kg)	hearts with Severity 0 [1]	hearts with Severity 0.5 [1]	hearts with Severity 1.0 [1]	hearts with Total Score 0 [1]	hearts with Total Score 0.5 [1]	hearts with Total Score 1.0 [1]	mean decrease in tumor volume compared with mean volume prior to drug administration (LM2 tumors; single MTD dose (26.6 mg/kg i.p.))	mean weight loss (poorly reversible) (LM2 tumors; single MTD, tumor-bearing NSG mice)	decrease in tumor volume compared with vehicle treatment (LM2 tumors; [2])	decrease in tumor weight compared with vehicle treatment (LM2 tumors; [2])	histologic damage to ventricular cardiomyocytes ([1]; non-tumor-bearing mice (n=9), cumulative tumor growth inhibitory dose)
COc1cccc2c1C(=O)c1c(O)c3c(c(O)c1C2=O)C[C@@](O)(C(=O)CO)C[C@@H]3O[C@H]1C[C@H](N)[C@H](O)[C@H](C)O1 [Doxorubicin, reference compound]	partial inhibition	failed to exhibit reduced growth	excessive and irreversible weight loss	5/9	0/9	4/9	7/9	2/9	0/9	–	–	–	–	–
COc1cccc2c1C(=O)c1c(O)c3c(c(O)c1C2=O)C[C@@](O)(C(=O)COC(=O)C(C)(C)C)C[C@@H]3O[C@H]1C[C@H](NCc2ccccc2)[C@H](O)[C@H](C)O1 [Pivarubicin, N-Benzyladriamycin-14-pivalate]	complete inhibition	–	–	9/9	0/9	0/9	9/9	0/9	0/9	40%	20%	50%	40%	no evidence of histologic damage

From patent US11666589B2, “Pivarubicin and benzarubicin compositions” (Paradox Pharmaceuticals, Inc., priority 2020, dated 2023)
